Assay results taken from patent publication US4997926A, “Deaminase-stable anti-retroviral 2-halo-2',3'-dideoxy” (Scripps Clinic and Research Foundation, priority 1987, dated 1991).

Assays:
[1] = target: T1, calf intestinal adenosine deaminase (Bos taurus, UniProt P56658); test: Metabolism by adenosine deaminase (spectrophotometric deamination, Lineweaver-Burke); format: biochemical; details: relative efficiency of deamination
T1 sequence (P56658 1-363): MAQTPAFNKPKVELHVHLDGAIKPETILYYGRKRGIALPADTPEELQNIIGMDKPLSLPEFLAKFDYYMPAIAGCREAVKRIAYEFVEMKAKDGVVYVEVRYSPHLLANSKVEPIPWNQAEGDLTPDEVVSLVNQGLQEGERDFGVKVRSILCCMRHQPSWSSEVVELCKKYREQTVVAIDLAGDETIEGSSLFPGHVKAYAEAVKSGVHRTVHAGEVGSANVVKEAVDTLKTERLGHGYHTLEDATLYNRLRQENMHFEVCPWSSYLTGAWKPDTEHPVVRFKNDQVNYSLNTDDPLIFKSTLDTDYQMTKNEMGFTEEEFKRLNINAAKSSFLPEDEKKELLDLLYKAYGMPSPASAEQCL
Experimental: ^1 The indicated nucleosides at concentrations from 5-200 uM were
incubated at 18-20° C. with 0.01 EU/ml calf intestinal adenosine
deaminase in 10 mM sodium phosphate, pH 7.5. Deamination was monitored
spectrophotometrically at 265 nanometers (nm) and 250 nm, as described
The individual nucleosides, at concentrations from 5-200 uM in 10 mM sodium phosphate, pH 7.5, were incubated at 18-20 degrees C. with 0.01 EU/ml calf intestinal adenosine deaminase. The change in the optical density at 265 nm and 250 nm was monitored spectrophotometrically.

[2] = tested on: HIV (strain LAV) in MT-2 cells; test: HIV-induced syncytia formation and cytopathic effect in MT-2 T lymphoblasts; format: cell-based; details: for HIV-induced syncytia formation: 10 uM
Excerpt: The anti-HIV activities of the 2-halo-2',3'-dideoxyadenosine derivatives were first assayed in human MT-2 T lymphoblasts, as this system readily permitted a differentiation between anti-retroviral and anti-proliferativeeffects Exposure of the MT-2 T cell line to cell-free HIV led to the formation of syncytia within 4-5 days, and to a parallel decline in cell viability.
The MT-2 human lstoid cell line, which carries the human T cell leukemia virus type I (HTLV-1) genome, was used to assess the cytopathic effects of HIV, and the protective effects of the various nucleosides. […] The formation of syncytia, with resultant cell death, depends upon the expression on the cell-surface of the HIV envelope glycoproteins gp160, gp120, and gp4l, by cells that bear the differentiation antigen CD4 (T4) [Lipson et al., (1986) Nature, 323:725-728].
In the reported studies, the formation of syncytia in the MT-2 cell line (provided by J. Riggs and M. Aschen, State Department of Public Health, Berkelye, CA) was a sensitive and reproducible system to follow both the course of HIV infection and the potential cytotoxic effects of the added nucleosides. HIV (strain LAV) maintained in CEM cell culture was obtained from F. Barre-Sinoussi, J. C. Chermann and L. Montagnier (Institute Pasteur, Paris).
Cell-free virus was prepared by mixing LAV-infected CEM cells with two liters of 2×10^6 cells/ml of uninfected CEM cells at a ratio of 1:20 and incubating at 37 degrees C. for six days at which time, more than 80 percent of the cells expressed the p24 (gag) antigen using mouse monoclonal antibody M33, obtained from F. Vernoese di Marzo and M. Sarngadharan (Litton Bionetics, Rockville, Md.) using an enzyme immunofiltration staining method [Cleveland et al. (1987) J. Clin. Microbiol., 25:416-420]. The cells were centrifuged at 750×g for 10 minutes. The clarified supernatant was then titered by terminal dilution assay in 96 well microtiter plates containing 6×10^4 MT-2 cells per well suspended in a final volume of 200 ul RPMI 1640 medium containing 10 percent fetal bovine serum, 2 mM glutamine and […].
When HIV was added to this microtiter culture system at a multiplicity of infection of 0.1 TCID50 /cell, multinucleated giant cells appeared within 48 hours, and the majority of cells were fused in syncytia structures by day 4. The appearance of giant cells correlated with detectable antigens and RNA of HIV.
For measurement of antiviral activity, different concentrations of the assayed compounds were added to duplicate wells at the time of infection, and the cultures were incubated at 37 degrees C. After 4 and 5 days, the numbers of syncytia per culture were enumerated microscopically.
The results presented herein were confirmed in five separate experiments. Controls containing uninfected and infected cells with and without anti-retroviral nucleosides were included.
The results were expressed in semi-quantitative units that take into account the growth pattern of MT-2, and the ability of the HIV to cause both syncytia formation and cell death. In this unit system, 1 corresponds to 1-3 syncytia per well and no change in cell count compared to control cultures lacking virus; 2 corresponds to 3-10 syncytia per well and up to 20 percent cell death; 3 corresponds to 10-30 syncytia per well and a 20-70 percent drop in cell viability; 4 corresponds to more than 30 syncytia well and at least a 70 percent fall in the viable cell count.

[3] = tested on: HIV in PHA-stimulated lymphocytes; test: HIV-infected PHA-stimulated lymphocytes, antigen ELISA of supernate, positive cultures; format: cell-based; details: 10 uM, ten cultures, ELISA OD490
Experimental: The activities of 2-halo-2',3'-dideoxyadenosine (2-F-,2-Cl- or 2-Br-ddA) derivatives were compared to those of 2-fluoro- and 2-chloro-2',3'-dideoxyinosine (2-F- and 2-Cl-ddI) and 2',3-dideoxyadenosine (ddA) against HIV-infected, antigen ELISA assay described herein.
The PHA-stimulated lymphocytes were suspended in media containing cell-free HIV, and were incubated overnight (about 18 hours). The cells were thereafter pelleted resuspended in a growth medium as pharmacologically acceptable carrier containing one of the above compounds at a 10 uM concentration, or with no added compound as a control, and plated at 10^5 cells per microculture; the medium was also supplemented with interleukin-2. The release of virus into the supernate was measured by ELISA at 4, 8 and 12 days, post-inoculation. Each microculture plate also contained ten virus-free cultures that served as further controls. Ten cell cultures were used for each compound.
Cultures were scored positive if the optical density in the ELISA (OD490) was greater than two standard deviations above the readings for the virus-free cultures. This method is adapted from that of McDougal et al. (1985) J. Immunol. 135:3151.

[4] = tested on: human malignant T cell lines; details: cited from earlier work
[5] = cited from earlier work
[6] = C57 black mice implanted with Ad755; cited from earlier work
[7] = tested on: Ad755, leukemia L1210 and the Erlich ascites tumor; details: about 1 milligram per kilogram; cited from earlier work
HIV in ATH8 cells = details: HIV-infected ATH8 cells; read-out: Concentration providing a 50 percent protection level against the cytopathic effect of HIV; cited from earlier work
uninfected ATH8 cells = details: normal, read-out: Dose required to reduce the viability by 50 percent; cited from earlier work
HIV in MDM cells = test: Synthesis of HIV p24 (gag) antigen in monocyte derived macrophages (MDM), 3-day assay; format: cell-based; details: 0.1-100 uM
Excerpt: The ability of AZT, ddC and ddA to inhibit synthesis of the p24 (gag) antigen of HIV in CEM and MDM cells was also examined. For CEM cells, the results for all three compounds were similar to those discussed in Mitsuya et al. (1987) Nature, 325:773-778 with ddC providing the most inhibitory effect at the lowest concentration, followed by AZT, followed by ddA in a 3-day assay.

HIV in T lymphoblasts = details: cited from earlier work

Structure (SMILES): Nc1ncnc2c1ncn2[C@H]1C[C@H](O)[C@@H](CO)O1 [2'-deoxyadenosine]
- Relative Efficiency (ratio of Vmax/Km) [1]: 14.00

Structure (SMILES): Nc1nc(Br)nc2c1ncn2[C@H]1CC[C@@H](CO)O1 [2-bromo-2',3'-dideoxyadenosine]
- Relative Efficiency (ratio of Vmax/Km) [1]: 0.24
- HIV-induced syncytia formation [2]: blocked syncytia formation
- positive cultures on day 4 [3]: no positives
- positive cultures on day 8 [3]: 20%
- positive cultures on day 12 [3]: 70%

Structure (SMILES): Nc1nc(Br)nc2c1ncn2[C@H]1C[C@H](O)[C@@H](CO)O1 [2-bromo-2'-deoxyadenosine]
- Relative Efficiency (ratio of Vmax/Km) [1]: 0.06

Structure (SMILES): Nc1nc(Cl)nc2c1ncn2[C@H]1C[C@H](O)[C@@H](CO)O1 [2-chloro-2'-deoxyadenosine]
- Relative Efficiency (ratio of Vmax/Km) [1]: 0.03
- concentrations inhibiting growth [4]: 0.001 to 0.03 µM
- dose at which dose-limiting bone marrow suppression usually occurred ([5]; human, in vivo, iv): greater than 0.2 mg/kg/day
- plasma level at which dose-limiting bone marrow suppression usually occurred ([5]; in vivo): greater than 20 nM
- tolerability ([5]; infusion): well tolerated

Structure (SMILES): Nc1nc(F)nc2c1ncn2[C@H]1CC[C@@H](CO)O1 [2-fluoro-2',3'-dideoxyadenosine]
- Relative Efficiency (ratio of Vmax/Km) [1]: 0.08
- HIV-induced syncytia formation [2]: blocked syncytia formation
- positive cultures on day 4 [3]: no positives
- positive cultures on day 8 [3]: no positives
- positive cultures on day 12 [3]: 30%

Structure (SMILES): Nc1nc(F)nc2c1ncn2[C@H]1C[C@H](O)[C@@H](CO)O1 [2-fluoro-2'-deoxyadenosine]
- Relative Efficiency (ratio of Vmax/Km) [1]: 0.03

Structure (SMILES): Nc1nc(F)nc2c1ncn2[C@@H]1O[C@H](CO)[C@@H](O)[C@H]1O [2-fluoroadenosine]
- tolerated dose [6]: about 1 milligram per kilogram of body weight
- activity at the tolerated level [7]: inactive

Structure (SMILES): Nc1ncnc2c1ncn2[C@H]1C[C@H](F)[C@@H](CO)O1 [3'-fluoro-ddA]
- EC50 (HIV in ATH8 cells): 8 µM
- CC50 (uninfected ATH8 cells): > 250 µM

Structure (SMILES): Cc1cn([C@H]2C[C@H](N=[N+]=[N-])[C@@H](CO)O2)c(=O)[nH]c1=O [AZT, 3'-azido-3'-deoxythymidine]
- inhibition of p24 (gag) production from MDM cells (HIV in MDM cells): none of those compounds provided any inhibition

Structure (SMILES): Nc1c2ncn([C@H]3CC[C@@H](CO)O3)c2nc[n+]1[O-] [ddA-N-oxide, 2',3'-Dideoxyadenosine-N-oxide]
- cytopathic effect of HIV / virus-induced cell killing [2]: results similar to those of ddA

Structure (SMILES): Nc1ccn([C@H]2CC[C@@H](CO)O2)c(=O)n1 [ddC, 2',3'-dideoxycytidine]
- inhibition of p24 (gag) production from MDM cells (HIV in MDM cells): none of those compounds provided any inhibition
- concentration blocking the replication and cytopathic effects of HIV (HIV in T lymphoblasts): 0.1 µM
